Source: PubChem BioAssay (NCI)
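Each compound was tested at five concentrations against cells in 96-well plates for 48 hours. TGI marks complete inhibition of growth.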

What was measured:
Test in all cases: NCI-60 cell line screen, 48 h
[1] = test system: HCT-116 colon
[2] = test system: NCI/ADR-RES ovarian
[3] = test system: MCF7 breast
[4] = test system: SF-539 CNS
[5] = test system: NCI-H226 lung
[6] = test system: PC-3 prostate
[7] = test system: DU-145 prostate
[8] = test system: SR leukemia
[9] = test system: BT-549 breast
[10] = test system: RXF 393 renal
[11] = test system: U251 CNS
[12] = test system: UACC-257 melanoma
[13] = test system: OVCAR-3 ovarian
[14] = test system: SNB-75 CNS
[15] = test system: MOLT-4 leukemia
[16] = test system: MDA-N
[17] = test system: HOP-92 NSCLC
[18] = test system: M14 melanoma
[19] = test system: MALME-3M melanoma
[20] = test system: SK-OV-3 ovarian
[21] = test system: 786-0 renal
[22] = test system: HCC-2998 colon
[23] = test system: HCT-15 colon
[24] = test system: SN12C renal
[25] = test system: UO-31 renal
[26] = test system: EKVX NSCLC
[27] = test system: CCRF-CEM leukemia
[28] = test system: A498 renal
[29] = test system: IGROV1 ovarian
[30] = test system: TK-10 renal
[31] = test system: SF-268 CNS
[32] = test system: OVCAR-5 ovarian
[33] = test system: CAKI-1 renal
[34] = test system: OVCAR-8 ovarian
[35] = test system: NCI-H23 lung
[36] = test system: SK-MEL-28 melanoma
[37] = test system: ACHN renal
[38] = test system: HS 578T breast
[39] = test system: NCI-H522 lung
[40] = test system: SK-MEL-2 melanoma
[41] = test system: SK-MEL-5 melanoma
[42] = test system: COLO 205 colon
[43] = test system: KM12 colon
[44] = test system: HOP-62 NSCLC
[45] = test system: LOX IMVI melanoma
[46] = test system: SF-295 CNS
[47] = test system: RPMI-8226 leukemia
[48] = test system: HL-60(TB) leukemia
[49] = test system: MDA-MB-435
[50] = test system: SW-620 colon
[51] = test system: UACC-62 melanoma
[52] = test system: T-47D breast
[53] = test system: SNB-19 CNS
[54] = test system: A549 NSCLC
[55] = test system: OVCAR-4 ovarian
[56] = test system: HT29 colon
[57] = test system: K-562 leukemia
[58] = test system: NCI-H460 lung

Measured: TGI

Cc1cn(C2CC(O)C(Cn3nncc3Cn3cnc4c(N)ncnc43)O2)c(=O)[nH]c1=O (stereo not given)
not listed: [56] | [57] | [58]
> 100 µM: all other assays above

NC1=NC(c2ccc(Cl)cc2)=CC(c2cccc(Cl)c2)S1 (stereo not given)
72.5 µM: [8]
84.6 µM: [25]
44 µM: [47]
33.1 µM: [42]
87.2 µM: [54]
33.2 µM: [23]
51.4 µM: [51]
77.1 µM: [10]
80.7 µM: [41]
96.9 µM: [26]
85.2 µM: [24]
60.1 µM: [17]
38.9 µM: [49]
55.5 µM: [11] | [40]
99.1 µM: [45]
44.9 µM: [53]
59.9 µM: [37]
55.8 µM: [39]
81.7 µM: [12]
71.9 µM: [5]
60.5 µM: [55]
80.9 µM: [22]
66.7 µM: [38]
60.7 µM: [30]
52.9 µM: [16]
92.5 µM: [33]
not listed: [14] | [28] | [36]
> 100 µM: all other assays above
